Test results: patent US20240124466A1, “COMPOUNDS AND USE THEREOF FOR TREATMENT OF NEURODEGENERATIVE, DEGENERATIVE AND METABOLIC DISORDERS” (VOVA IDA THERAPEUTICS, INC., priority 2020, published 2024)
Values joined by “and” are separate entries in the source; they are usually repeats but may differ in a detail not shown here. Equal entries are not always repeated. Where two headings read alike, the source gives them in different places.

How the values were obtained:
[1] = tested on: PK1 neuroblastoma cells exposed to TPrP; details: for EC50: read-out: TPrP EC50; for toxic at cc (concentration above which compound is toxic): mouse
[2] = tested on: PK1 neuroblastoma cells exposed to TPrP; experiment: cells; details: Neuroblastoma cell, 96 h, read-out: TPrP EC50

Cc1ccc(-c2nnc3c4ccccc4c(C)nn23)cc1S(=O)(=O)N1CCOCC1 [SR-843] was tested, and the EC50 [1] was 20 nM and 25 nM and 30 nM and the EC50 [2] was 15 nM.
With Cc1ccc(-c2nnc(-c3ccccc3)[nH]2)cc1S(=O)(=O)N1CCOCC1 [SR-25604, 4-((2-Methyl-5-(5-phenyl-4H-1,2,4-triazol-3-yl)phenyl)sulfonyl)morpholine] the EC50 [1] was 30 nM and 40 nM and the EC50 [2] was 35 nM.
For Cc1ccc(-c2nnc(-c3ccc(N(C)C)cc3)[nH]2)cc1S(=O)(=O)N1CCOCC1 [SR-28124, N,N-dimethyl-4-(5-(4-methyl-3-(morpholinosulfonyl)phenyl)-4H-1,2,4-triazol-3-yl)aniline], the “toxic at cc (concentration above which compound is toxic)” value [1] was 12 nM (but toxic at cc >135 nM) and the EC50 [2] was 12 nM.
In the case of Cc1ccc(-c2ccnc(-c3ccncc3)c2)cc1S(=O)(=O)N1CCOCC1 [SR-29204, 4-((5-([2,4′-Bipyridin]-4-yl)-2-methylphenyl)sulfonyl)morpholine], the “protection at 5 nM” value [1] is reported as <5 nM (100% protection at 5 nM) and the EC50 [2] is reported as less than 5 nM.
In the case of Cc1ccc(-c2nnc(-c3ccc([N+](=O)[O-])cc3)[nH]2)cc1S(=O)(=O)N1CCOCC1 [SR-29045, 4-((2-Methyl-5-(5-(4-nitrophenyl)-4H-1,2,4-triazol-3-yl)phenyl)sulfonyl) morpholine], the “toxic at cc (concentration above which compound is toxic)” value [1] is reported as 5 nM (but toxic at cc >5 nM) and the EC50 [2] is reported as 5 nM.
In the case of Cc1ccc(-c2ccnc(Cl)c2)cc1S(=O)(=O)N1CCN(CCF)CC1 [SR-35017, 1-((5-(2-Chloropyridin-4-yl)-2-methylphenyl)sulfonyl)-4-(2-fluoroethyl) piperazine], the EC50 [2] is reported as 900 nM.
In the case of Cc1ccc(-c2nc3ccccn3n2)cc1S(=O)(=O)N1CCOCC1 [SR-26524, 4-((5-([1,2,4]Triazolo[1,5-a]pyridin-2-yl)-2-methylphenyl)sulfonyl) morpholine], the EC50 [2] is reported as 50 nM.
Cc1ccc(-c2coc(-c3ccccc3)c2)cc1S(=O)(=O)N1CCOCC1 [SR-29044, 4-((2-Methyl-5-(5-phenylfuran-3-yl)phenyl)sulfonyl)morpholine] was tested, and the EC50 [2] was greater than 1200 nM.
Work on Cc1ccc(-c2nnc(-c3ccccc3)[nH]2)cc1S(=O)(=O)NCc1cccnc1 [SR-31584, 2-Methyl-5-(5-phenyl-4H-1,2,4-triazol-3-yl)-N-(pyridin-3-ylmethyl)benzene sulfonamide] yielded an EC50 [2] of 90 nM.
Cc1ccc(-c2nnc(-c3ccccc3)n2C)cc1S(=O)(=O)N1CCOCC1 [SR-28864, 4-((2-Methyl-5-(4-methyl-5-phenyl-4H-1,2,4-triazol-3-yl)phenyl)sulfonyl) morpholine] showed an EC50 [2] greater than 1200 nM.
Molecule Cc1ccc(-c2n[nH]c3ccccc23)cc1S(=O)(=O)N1CCOCC1 [SR-27564, 4-((5-(1H-Indazol-3-yl)-2-methylphenyl)sulfonyl)morpholine] has an EC50 [2] of 135 nM.
Cc1ccc(-c2nnc(-c3ccccc3)[nH]2)cc1S(=O)(=O)N1CC(O)C1 [SR-32944, 1-((2-Methyl-5-(5-phenyl-4H-1,2,4-triazol-3-yl)phenyl)sulfonyl)azetidin-3-ol] was tested, and the EC50 [2] was 15 nM.
Cc1ccc(-c2nnc(-c3ccccc3)[nH]2)cc1S(=O)(=O)N1CCCC2(C1)OCCO2 [SR-33045, 7-((2-Methyl-5-(5-phenyl-4H-1,2,4-triazol-3-yl)phenyl)sulfonyl)-1,4-dioxa-7-azaspiro[4.5]decane] showed an EC50 [2] greater than 1500 nM.
With Cc1ccc(-c2ccncc2)cc1S(=O)(=O)N1CCOCC1 [SR-24583] the EC50 [2] was 100 nM.
Cc1ccc(-c2ccnc(Cl)c2)cc1S(=O)(=O)N1CCN(CCO)CC1 [SR-34793, 2-(4-((5-(2-Chloropyridin-4-yl)-2-methylphenyl)sulfonyl)piperazin-1-yl)ethan-1-ol] was tested, and the EC50 [2] was 40 nM.
Work on Cc1ccc(-c2nnc(-c3ccncc3)[nH]2)cc1S(=O)(=O)N1CCOCC1 [SR-28224, 4-((2-Methyl-5-(5-(pyridin-4-yl)-4H-1,2,4-triazol-3-yl)phenyl)sulfonyl) morpholine] yielded an EC50 [2] of 18 nM.
Molecule Cc1ccc(-c2nnc(-c3ccccc3)[nH]2)cc1S(=O)(=O)N1CCN(CCO)CC1 [SR-32124] has an EC50 [2] of 15 nM.
Molecule N#Cc1ccc(-c2nnc(-c3ccccc3)[nH]2)cc1S(=O)(=O)N1CCOCC1 [SR-27504, 2-(Morpholinosulfonyl)-4-(5-phenyl-4H-1,2,4-triazol-3-yl)benzonitrile] has an EC50 [2] greater than 320 nM.
For Cc1ccc(-c2cnc3ccccn23)cc1S(=O)(=O)N1CCOCC1 [SR-27444, 4-((5-(Imidazo[1,2-a]pyridin-3-yl)-2-methylphenyl)sulfonyl)morpholine], the EC50 [2] was greater than 320 nM.
Cc1ccc(-c2nnc(-c3ccccc3)[nH]2)cc1S(=O)(=O)NCCN1CCOCC1 [SR-31824, 2-Methyl-N-(2-morpholinoethyl)-5-(5-phenyl-4H-1,2,4-triazol-3-yl)benzene sulfonamide] gave an EC50 [2] greater than 1500 nM.
In the case of Cc1ccc(-c2nnc(-c3ccccc3)[nH]2)cc1S(=O)(=O)N1CCC2(CC1)OCCO2 [SR-32705, 8-((2-Methyl-5-(5-phenyl-4H-1,2,4-triazol-3-yl)phenyl)sulfonyl)-1,4-dioxa-8-azaspiro[4.5]decane], the EC50 [2] is reported as greater than 1500 nM.
